US20230140276A1, “TRICYCLIC COMPOUNDS, PREPARATION METHOD AND MEDICAL USE THEREOF” (HEFEI INSTITUTE OF PHARMACEUTICAL INDUSTRY CO., LTD., priority 2020, published 2023)

Key:
hERG potassium channel = hERG potassium channel (Homo sapiens, UniProt Q12809); experiment: hERG potassium channel activity test; format: biochemical
[1] = tested on: histamine-induced skin vascular permeability; experiment: Inhibitory effect on histamine-induced vascular permeability in mice; format: in vivo, ICR mice; settings: Mus musculus, po; 5 mg/kg intragastric 1 hour before modeling; histamine phosphate 1 ug/0.1 mL; Evans Blue absorbance at 610 nm; read-out: Inhibition rate (%)
Protocol: Intragastric administration was performed 1 hour before modeling. The model group was given the corresponding solvent. […] 10% sodium sulfide was used to depilate the back of mice (3 cm×3 cm). The mice were injected 1 ug/0.1 mL of histamine phosphate physiological saline solution into the depilation site one hour after the administration, and injected 0.25% Evans Blue solution 4 ml/kg from the tail vein immediately after the injection. After 30 minutes, the mice were dislocated and sacrificed. The blue-stained part of the skin was removed and perforated (diameter 15 mm), cut into pieces and soaked in 1 ml of acetone-saline (7:3) solution. After 24 h, it was centrifuged (3000 r/min, 10 min) to take the supernatant. The absorbance of the sample was measured with an ultraviolet spectrophotometer at a wavelength of 610 nm and a blank zero calibration with acetone-physiological saline solution.

[2] = tested on: pilocarpine-induced saliva secretion; experiment: Pilocarpine-induced salivation in rats; settings: for saliva secretion compared with the model group: 10 mg/kg intragastric administration; for Inhibition rate (%): 10 mg/kg intragastric, pilocarpine 1 mg/kg i.p. 15 minutes later, saliva collected 10 minutes
Protocol: Rats in each group were given corresponding drugs by intragastric administration. 15 minutes later, pilocarpine (1 mg/kg, dissolved in physiological saline) was injected intraperitoneally to induce saliva secretion. The rat was immediately anesthetized by intraperitoneal injection of 10% chloral hydrate. After the rat was anesthetized, the residual saliva in the oral cavity was taken out with a cotton ball in that the weighed cotton ball (M1) was placed in the oral cavity (two under the tongue and one for each on both sides). The cotton ball was taken out 10 minutes later and the weight of the cotton ball (M2) was immediately measured.
Inhibition rate=Saliva secretion in drug administration group/Saliva secretion in model group×100%

Chain of hERG potassium channel (Q12809 whole entry): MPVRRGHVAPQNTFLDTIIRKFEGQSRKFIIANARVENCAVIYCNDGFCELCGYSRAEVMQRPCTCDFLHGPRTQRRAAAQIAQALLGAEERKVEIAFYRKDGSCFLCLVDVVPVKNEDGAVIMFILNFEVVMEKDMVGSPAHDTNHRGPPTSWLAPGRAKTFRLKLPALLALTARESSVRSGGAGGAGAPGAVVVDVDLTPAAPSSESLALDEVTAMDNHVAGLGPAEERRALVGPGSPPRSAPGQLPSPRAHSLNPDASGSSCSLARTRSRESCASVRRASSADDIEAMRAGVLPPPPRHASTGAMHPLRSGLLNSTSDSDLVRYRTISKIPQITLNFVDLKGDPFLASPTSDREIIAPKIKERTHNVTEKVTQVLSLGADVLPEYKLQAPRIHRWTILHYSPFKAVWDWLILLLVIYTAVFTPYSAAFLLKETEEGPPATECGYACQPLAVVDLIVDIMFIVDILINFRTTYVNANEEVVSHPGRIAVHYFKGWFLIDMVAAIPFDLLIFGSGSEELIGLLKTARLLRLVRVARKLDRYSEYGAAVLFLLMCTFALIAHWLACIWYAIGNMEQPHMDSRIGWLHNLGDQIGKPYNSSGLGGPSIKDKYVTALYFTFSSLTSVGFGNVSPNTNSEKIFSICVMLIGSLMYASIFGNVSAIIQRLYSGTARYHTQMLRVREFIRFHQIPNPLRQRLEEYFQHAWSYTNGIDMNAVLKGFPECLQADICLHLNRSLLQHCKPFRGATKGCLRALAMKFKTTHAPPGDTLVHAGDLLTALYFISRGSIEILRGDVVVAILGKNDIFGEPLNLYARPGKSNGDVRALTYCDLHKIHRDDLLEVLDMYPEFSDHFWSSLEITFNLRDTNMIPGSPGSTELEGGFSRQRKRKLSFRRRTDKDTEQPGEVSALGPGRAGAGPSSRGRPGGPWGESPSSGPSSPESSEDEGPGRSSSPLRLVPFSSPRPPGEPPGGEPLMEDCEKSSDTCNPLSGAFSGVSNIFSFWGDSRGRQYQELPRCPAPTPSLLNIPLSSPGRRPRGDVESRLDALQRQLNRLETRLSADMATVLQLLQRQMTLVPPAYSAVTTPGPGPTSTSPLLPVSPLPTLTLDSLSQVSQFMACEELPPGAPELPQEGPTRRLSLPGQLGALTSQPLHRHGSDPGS

saliva secretion compared with the model group [2] | Inhibition rate (%) [2] [%] | Structure (SMILES) | IC50 (hERG potassium channel) [µM] | inhibition in vivo at 5 mg/kg [1] [%]
decreased | 84.30 | Cc1ccc2c(c1)CCc1cccnc1C2=C1CCN(CCCc2ccc(C(=O)O)cc2)CC1 [Compound 1, reference compound] | 2.03 | 36.1
 | 95.60 | COc1ccccc1OCC(O)CN1CCC(=C2c3ccc(Cl)cc3CCc3cccnc32)CC1 (stereo not drawn) [Compound LHC-7, reference compound] | 0.248 | 53.2
decreased | 98.40 | Cc1nc(C)c(CN2CCC(=C3c4ccc(Cl)cc4CCc4cccnc43)CC2)nc1C [Compound LP-2, reference compound] | 4.03 | 54.1
 | 18.53 | CC(C)(C(=O)O)c1ccc(CN2CCC(=C3c4ccc(Cl)cc4CCc4cccnc43)CC2)cc1 [Example 1, 2-(4-((4-(8-chloro-5,6-dihydro-11H-benzo[5,6]cyclohept[1,2-b]pyridine-11-enyl)piperidine-1-yl)methyl)phenyl)-2-methylpropionic acid] | > 30 | 52.2
 | 7.64 | CC(C)(C(=O)O)c1ccc(CCN2CCC(=C3c4ccc(Cl)cc4CCc4cccnc43)CC2)cc1 [Example 2, 2-(4-(2-(4-(4-(8-chloro-5,6-dihydro-11H-benzo[5,6]]cyclohept[1,2-b]pyridine-11-enyl)piperidin-1-yl)ethyl)phenyl)-2-methylpropionic acid] |  | 54
 | 7.02 | CC(C)(C(=O)O)c1ccc(CCCN2CCC(=C3c4ccc(Cl)cc4CCc4cccnc43)CC2)cc1 [Example 3, 2-(4-(3-(4-(8-chloro-5,6-dihydro-11H-benzo[5,6]cyclohept[1,2-b]pyridine-11-enyl)piperidine-1-yl)propyl)phenyl)-2-methylpropionic acid] | > 30 | 41.7
 | 11.60 | COc1cc(C(C)(C)C(=O)O)ccc1CCCN1CCC(=C2c3ccc(Cl)cc3CCc3cccnc32)CC1 [Example 5, 2-(4-(3-(4-(8-chloro-5,6-dihydro-11H-benzo[5,6]cyclohepta[1,2-b]pyridine-11-enyl)piperidine-1-yl)propyl)-3-methoxyphenyl)-2-methylpropionic acid] |  | 47.9
 | 6.34 | CC(C)(C(=O)O)c1ccc(CCCN2CCC(=C3c4ccc(Cl)cc4CCc4cccnc43)CC2)c(N)c1 [Example 6, 2-(3-Amino-4-(3-(4-(8-chloro-5,6-dihydro-11H-benzo[5,6]cyclohept[1,2-b]pyridine-11-enyl)piperidin-1-yl)propyl)phenyl)-2-methylpropionic acid] |  | 53.2
 | 12.01 | CC(C)(C(=O)O)c1ccc(CCCN2CCC(=C3c4ccc(Cl)cc4CCc4cccnc43)CC2)cc1F [Example 9, 2-(4-(3-(4-(8-chloro-5,6-dihydro-11H-benzo[5,6]cyclohepta[1,2-b]pyridine-11-enyl)piperidine-1-yl)propyl)-2-fluorophenyl)-2-methylpropionic acid] |  | 50.6
 | 5.13 | Cc1cc(C(C)(C)C(=O)O)ccc1CCCN1CCC(=C2c3ccc(Cl)cc3CCc3cccnc32)CC1 [Example 10, 2-(4-(3-(4-(8-chloro-5,6-dihydro-11H-benzo[5,6]cyclohepta[1,2-b]pyridine-11-enyl)piperidine-1-yl)propyl)-3-methylphenyl)-2-methylpropionic acid] |  | 41.2
 | 7.48 | CC(C)(C(=O)O)c1ccc(CCCN2CCC(=C3c4ccc(Cl)cc4CCc4cccnc43)CC2)c(C(F)(F)F)c1 [Example 12] |  | 44.6
 | 5.77 | CC(C)(C(=O)O)c1ccc(CCCN2CCC(=C3c4ccc(Cl)cc4CCc4cccnc43)CC2)cc1C(F)(F)F [Example 13] |  | 51
 | 3.78 | CC(C)(C(=O)O)c1ccc(CCCN2CCC(=C3c4ccc(Cl)cc4CCc4cccnc43)CC2)c(Br)c1 [Example 14, 2-(3-Bromo-4-(3-(4-(8-chloro-5,6-dihydro-11H-benzo[5,6]cyclohept[1,2-b]pyridine-11-enyl)piperidin-1-yl)propyl)phenyl)-2-methylpropionic acid] |  | 42.8
 | 8.42 | CC(C)(C(=O)O)c1ccc(CCCN2CCC(=C3c4ccc(Cl)cc4CCc4cccnc43)CC2)c(Cl)c1 [Example 15, 2-(3-chloro-4-(3-(4-(8-chloro-5,6-dihydro-11H-benzo[5,6]cyclohept[1,2-b]pyridine-11-enyl)piperidin-1-yl)propyl)phenyl)-2-methylpropionic acid] |  | 52.8
 | 10.76 | CC(C)(C(=O)O)c1ccc(CCCN2CCC(=C3c4ccc(Cl)cc4CCc4cccnc43)CC2)c([N+](=O)[O-])c1 [Example 16, 2-(4-(3-(4-(8-chloro-5,6-dihydro-11H-benzo[5,6]cyclohepta[1,2-b]pyridine-11-enyl)piperidine-1-yl)propyl)-2-nitrophenyl)-2-methylpropionic acid] |  | 50.8
 | 6.54 | CC(C)(C(=O)O)c1ccc(CCCN2CCC(=C3c4ccc(Cl)cc4CCc4cccnc43)CC2)cc1[N+](=O)[O-] [Example 17, 2-(4-(3-(4-(8-chloro-5,6-dihydro-11H-benzo[5,6]cyclohepta[1,2-b]pyridine-11-enyl)piperidine-1-yl)propyl)-3-nitrophenyl)-2-methylpropionic acid] |  | 49.2
 | 12.50 | CC(C)(C(=O)O)c1ccc(CCCN2CCC(=C3c4ccc(Cl)cc4CC(O)c4cccnc43)CC2)cc1 (stereo not drawn) [Example 18] |  | 46.6
 | 11.83 | CC(C)(C(=O)O)c1ccc(CCCN2CCC(=C3c4ccc(Cl)cc4C(O)Cc4cccnc43)CC2)cc1 (stereo not drawn) [Example 19] |  | 53.3
 | 7.65 | CC(C)(C(=O)O)c1ccc(CCCN2CCC(=C3c4ccc(Cl)cc4CCc4cc(O)cnc43)CC2)cc1 [Example 20] |  | 58
 | 18.43 | CC(C)(C(=O)O)c1ccc(CCCN2CCC(=C3c4ccccc4CC(=O)c4sccc43)CC2)cc1 [Example 22, 2-Methyl-2-(4-(3-(4-(10-oxo-9,10-dihydro-4H-benzo[4,5]cyclohepta[1,2-b]thiophene-4-alkylene)piperidin 1-yl)propyl)phenyl) propionic acid] |  | 63.3
 | 8.54 | CC(C)(C(=O)O)c1ccc(CCCN2CCC(=C3c4ccccc4CC(O)c4sccc43)CC2)cc1 (stereo not drawn) [Example 23, 2-(4-(3-(4-(10-hydroxy-9,10-dihydro-4H-benzo[4,5]cyclohept[1,2-b]thiophen-4-alkylene)piperidin-1-yl)propyl)phenyl)-2-methylpropionic acid] |  | 66.7
 | 10.32 | CC(C)(C(=O)O)c1ccc(CCCCN2CCC(=C3c4ccc(Cl)cc4CCc4cccnc43)CC2)cc1 [Example 24] |  | 47.6
 | 9.68 | CC(C)(C(=O)O)c1cccc(CCCN2CCC(=C3c4ccc(Cl)cc4CCc4cccnc43)CC2)c1 [Example 25, 2-(3-(3-(4-(8-chloro-5,6-dihydro-11H-benzo [5,6]cyclohepta [1,2-b]pyridine-11-enyl)piperidine-1-yl)propyl)phenyl)-2-methylpropionic acid] |  | 66.8
 | 5.48 | CC(C)(C(=O)O)c1cccc(CCCN2CCC(=C3c4ccccc4CC(O)c4sccc43)CC2)c1 (stereo not drawn) [Example 27, 2-(3-(3-(4-(10-hydroxy-9,10-dihydro-4H-benzo[4,5]cyclohepta[1,2-b]thiophene-4-alkylene)piperidin-1-yl)propyl)phenyl)-2-methylpropionic acid] |  | 48.8
 | 19.65 | CC(C)(C(=O)O)c1ccccc1CCCN1CCC(=C2c3ccc(Cl)cc3CCc3cccnc32)CC1 [Example 28, 2-(2-(3-(4-(8-chloro-5,6-dihydro-11H-benzo[5,6]cyclohepta[1,2-b]pyridine-11-enyl)piperidine-1-yl)propyl)phenyl)-2-methylpropionic acid] |  | 43.8
 | 6.74 | CC(C)(C(=O)O)c1cccc(C(O)CCCN2CCC(=C3c4ccc(Cl)cc4CCc4cccnc43)CC2)c1 (stereo not drawn) [Example 30, 2-(3-(4-(4-(8-chloro-5,6-dihydro-11H-benzo[5,6]cyclohepta[1,2-b]pyridine-11-enyl)piperidine-1-yl)-1-hydroxybutyl)phenyl)-2-methylpropionic acid] |  | 52.2
 | 13.25 | CC(C)(C(=O)O)c1cccc(C(O)CCN2CCC(=C3c4ccc(Cl)cc4CCc4cccnc43)CC2)c1 (stereo not drawn) [Example 31, 2-(3-(3-(4-(8-chloro-5,6-dihydro-11H-benzo[5,6]cyclohepta[1,2-b]pyridine-11-enyl)piperidine-1-yl)-1-hydroxypropyl)phenyl)-2-methylpropionic acid] |  | 48
 | 18.93 | CC(C)(C(=O)[O-])c1ccc(CCN2CCC(=C3c4ccc(Cl)cc4CCc4cccnc43)CC2)cc1.[Na+] [Example 32] | > 30 | 
